# Values joined by “and” are separate entries in the source; they are usually repeats but may differ in a detail not shown here. Identical values can stand only once.
# Assays:
# Leukotriene, LTD4 = Leukotriene, LTD4 (Homo sapiens, UniProt Q9Y271); assay: Table 12 panel: Leukotriene, LTD4; details: 1.0E−6, average N=2, read-out: percentage inhibition of specific binding
# Source text: (§1) The percentage inhibition (average; N=2) for these receptors is shown below in Table 12.
# (§2) Values in Table 12 are expressed as percentage inhibition of specific binding, and these values represent the average of replicate tubes at each of the concentrations tested.
# [1] = test system: Muscarinic, Non-selective, Central; assay: Table 12 panel: Muscarinic, Central; type: binding; details: 1.0E−6, average N=2
# Source text: as §1, §2
# [2] = test system: Adrenergic, Beta, Non-selective; assay: Table 12 panel: Adrenergic, Beta; type: binding; details: 1.0E−6, average N=2
# Source text: as §1, §2
# GABA A, Agonist Site = assay: Table 12 panel: GABA A, Agonist Site; type: binding; details: 1.0E−6, average N=2
# Source text: as §1, §2
# Glutamate, Kainate Site = assay: Table 12 panel: Glutamate, Kainate; type: binding; details: 1.0E−6, average N=2
# Source text: as §1, §2
# Glutamate, AMPA Site = assay: Table 12 panel: Glutamate, AMPA; type: binding; details: 1.0E−6, average N=2
# Source text: as §1, §2
# [3] = 14-day rat study with recovery; type: in vivo; details: both sexes, Crl:CD(SD)IGS BR, rat, in vivo, po
# Protocol: (§3) The purpose of this study was to evaluate the toxicity of HY2901 when administered via oral gavage to rats for at least 14 days and to assess the reversibility, persistence, or delayed occurrence of any effects after a recovery period of up to 14 days.
# (§4) Male and female Crl:CD®(SD)IGS BR rats were assigned to seven groups, four main study groups and three groups for toxicokinetics. Each group received dose preparations containing 0.25% methylcellulose, 400 cps in 200 mM acetate buffer, or 10, 30, or 150 mg of test article/kg of body weight (mg/kg/day) at a dose volume of 5 mL/kg.
# (§5) Assessment of toxicity was based on mortality, clinical and ophthalmic observations, body weights, food consumption, clinical pathology, organ weights, and macroscopic and microscopic findings. Blood samples were collected for toxicokinetic evaluation.
# Crl:CD(SD)IGS BR rats = assay: 14-day rat study with recovery; type: in vivo
# Protocol: as §3, §4, §5
# Wistar rats = assay: Acetic acid-induced abdominal spasm test in the rat; type: in vivo
# Protocol: (§6) The objective of this example was to determine the analgesic activity of HY-2901 (Also referred to herein as Compound 49a) following oral administration. Analgesic activity was assessed abdominal spasm test in the rat and mouse. Analgesic activity is also assessed using the tail clip test in the mouse, tail flick test in the rat, Randall-Selitto test in the rat and comparisons are made with a vehicle control group. Reference compounds ASA (acetylsalicylic acid) and morphine are also included for comparison.
# (§7) The tail clip and tail flick test provide useful information about the central analgesic activity of the test article. The Randall-Selitto test provides information on the compound's ability to modify a hyperalgesic state and the abdominal spasm test provides information on the peripheral analgesic activity of the test article. The test article is administered by oral gavage, this being the intended clinical route of administration. The dose levels employed are expected to encompass the efficacy dose and provide an adequate safety margin.
# (§8) All formulations were prepared on each day of dosing. The test article (HY-2901) was formulated in 0.25% (w/v) MC at the highest concentration required. Lower doses were obtained by serial dilution of the highest concentration using 0.25% (w/v) MC. The reference compound, acetylsalicylic acid, was formulated in 0.25% (w/v) MC at the required concentrations. Brewer's yeast was formulated in water for injection at the required concentration. Acetic acid was diluted with water for injection to provide the required concentration for administration.
# (§9) An adequate number of male Crl:CD-I(ICR)BR mice and Wistar rats were obtained from Charles River (UK) Ltd., Margate, Kent. The mice were approximately 4 weeks of age and weigh between 18 and 22 g on arrival. The rats were approximately 5 weeks of age and weigh between 150 and 170 g on arrival. The age and weight of the animals at the start of the study was documented in the raw data and final report,
# Each animal received a single administration of vehicle, test article or reference compound by oral gavage, using a constant dose volume […]. Individual dose volumes were based on individual body weights obtained on the day of dosing.
# Forty-five minutes following oral administration each animal received a 1 mL intraperitoneal injection of 1% acetic acid. Animals were immediately placed into individual observation chambers and the number of abdominal spasms elicited over the subsequent 25-minute period was recorded.
# CYP 2C9 = molecular target: T1, CYP 2C9 (Homo sapiens, UniProt P11712); assay: Cytochrome P450 inhibition: CYP 2C9; type: in vitro ADME; details: human microsomal preparation
# T1 construct: in a commercially available human microsomal preparation; purchased; host or cells: human microsomal preparation
# T1 sequence (P11712 whole entry): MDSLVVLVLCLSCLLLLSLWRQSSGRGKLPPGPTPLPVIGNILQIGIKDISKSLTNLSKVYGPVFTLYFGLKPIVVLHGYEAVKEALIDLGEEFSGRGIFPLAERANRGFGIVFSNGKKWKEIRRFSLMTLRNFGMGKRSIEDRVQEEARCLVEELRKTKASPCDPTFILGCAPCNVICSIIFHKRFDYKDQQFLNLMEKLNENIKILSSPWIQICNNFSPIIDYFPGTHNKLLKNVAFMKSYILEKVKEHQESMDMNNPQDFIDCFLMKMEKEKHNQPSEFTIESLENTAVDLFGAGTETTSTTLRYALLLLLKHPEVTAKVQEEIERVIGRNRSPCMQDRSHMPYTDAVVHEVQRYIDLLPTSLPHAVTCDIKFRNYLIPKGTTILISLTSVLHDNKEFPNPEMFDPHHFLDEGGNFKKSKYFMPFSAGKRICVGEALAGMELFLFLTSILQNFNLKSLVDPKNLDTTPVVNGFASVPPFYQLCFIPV
# Protocol: Cytochrome P450 inhibition was studied with HY2901 in vitro. […] In addition, the in vitro rate of metabolism in rat, dog, monkey, and human hepatocyte cultures was determined for HY2901.
# telemetered Beagle dogs = assay: ECG and arterial blood pressure in telemetered Beagle dogs; type: in vivo, dog
# Protocol: To determine if HY2901 could produce any changes in QT interval, the compound was studied in telemetered Beagle dogs. Dogs were implanted with devices to continuously monitor ECG and arterial blood pressure. Dogs (groups of 4) were studied in a Latin square cross-over design, with each dog receiving 3 different doses and a placebo. Two studies were conducted with doses of 0.3, 1, 3, 10, and 30 mg/kg. […] The tachycardia persisted for 6–8 hours postdose at 0.3 and 1 mg/kg. A ceiling effect to the heart rate increase seemed to exist with heart rates peaking at approximately 150–160 in both the 10 and 30 mg/kg dose groups.
# Crl:CD-I(ICR)BR mice = assay: Acetic acid-induced abdominal spasm test in the mouse; type: in vivo; details: for Number of abdominal spasms recorded in a 25-minute period: oral
# Protocol: as §6, §7, §8, §9
# Each animal received a single administration of vehicle, test article or reference compound by oral gavage, using a constant dose volume 10 mL/kg. Individual dose volumes were based on individual body weights obtained on the day of dosing.
# Forty-five minutes following oral administration each animal received a 0.25 mL intraperitoneal injection of 0.5% acetic acid. Animals were immediately placed into individual observation chambers and the number of abdominal spasms elicited over the subsequent 25-minute period was recorded.
# [4] = Brain levels of parent drug after oral administration; details: rat, 3 mg/kg
# Leukotriene, LTD4, sequence (Q9Y271 whole entry): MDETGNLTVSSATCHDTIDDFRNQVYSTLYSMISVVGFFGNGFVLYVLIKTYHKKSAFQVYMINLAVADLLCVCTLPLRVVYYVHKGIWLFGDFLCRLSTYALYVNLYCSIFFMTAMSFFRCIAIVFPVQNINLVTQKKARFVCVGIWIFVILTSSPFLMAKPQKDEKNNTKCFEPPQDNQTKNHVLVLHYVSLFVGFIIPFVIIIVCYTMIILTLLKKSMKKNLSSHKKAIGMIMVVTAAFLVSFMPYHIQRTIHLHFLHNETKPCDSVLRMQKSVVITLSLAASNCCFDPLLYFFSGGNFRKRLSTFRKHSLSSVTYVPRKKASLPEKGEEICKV
structure (smiles),measurement,setting,value
CC(CC(=O)O)N1CCC(=C2c3ccc(F)cc3COc3ccccc32)CC1 (stereo not shown) [Compound 37],inhibition at 1 µM,"Leukotriene, LTD4",-20.1%
same,percentage inhibition of specific binding,[1],12.84%
same,percentage inhibition of specific binding,[2],6.97%
same,percentage inhibition of specific binding,"GABA A, Agonist Site",20.18%
same,percentage inhibition of specific binding,"Glutamate, Kainate Site",1.51%
same,percentage inhibition of specific binding,"Glutamate, AMPA Site",3.59%
CC(C)(CN1CCC(=C2c3ccc(F)cc3COc3ccccc32)CC1)C(=O)O [Compound 49a],NOAEL at 14 days,[3],30 mg/kg/day
same,mean body weight,Crl:CD(SD)IGS BR rats; 150 mg/kg/day males,depression in mean body weight of the 150 mg/kg/day males
same,"mean weights of thymus, lung, and heart","Crl:CD(SD)IGS BR rats; 150 mg/kg/day males, terminal sacrifice",significantly low relative to brain weight
same,food consumption,"Crl:CD(SD)IGS BR rats; 150 mg/kg/day, Week 1",depression in food consumption in 150 mg/kg/day rats in Week 1
same,expected pharmacological effects (clinical signs),"Crl:CD(SD)IGS BR rats; 10, 30, or 150 mg/kg/day","hypoactivity, ataxia, and the appearance of sleep, were commonly observed"
same,unscheduled deaths,"Crl:CD(SD)IGS BR rats; 10, 30, or 150 mg/kg/day, 14 days",largely restricted to the 150 mg/kg/day groups
same,ophthalmic observations,Crl:CD(SD)IGS BR rats; all groups,No ophthalmic lesions
same,clinical pathology findings,"Crl:CD(SD)IGS BR rats; rat, in vivo",unrelated to treatment
same,increases in Cmax and AUC(0-t) with dose,"Crl:CD(SD)IGS BR rats; rat, in vivo",greater than dose proportional
same,accumulation after multiple dosing,Crl:CD(SD)IGS BR rats; rats,Minimum accumulation
same,macroscopic and microscopic findings,Crl:CD(SD)IGS BR rats; terminal and recovery sacrifice rats,No treatment-related macroscopic observations or microscopic toxic effects
same,Group mean (=sd) number pf abdominal spasms recorded in a 25-minute period,Wistar rats; oral 3 mg/kg,31 ± 9.0
same,"Number of abdominal spasms recorded in a 25-minute period, individual animal data","Wistar rats; oral 3 mg/kg, listed as HY-2901, 3 mg/kg",42 and 17 and 26 and 29 and 31 and 39
same,Group mean (=sd) number pf abdominal spasms recorded in a 25-minute period,Wistar rats; oral 10 mg/kg,25 ± 16.4
same,"Number of abdominal spasms recorded in a 25-minute period, individual animal data","Wistar rats; oral 10 mg/kg, listed as HY-2901, 10 mg/kg",57 and 23 and 20 and 24 and 19 and 9
same,Group mean (=sd) number pf abdominal spasms recorded in a 25-minute period,Wistar rats; oral 30 mg/kg,17 ± 13.8
same,"Number of abdominal spasms recorded in a 25-minute period, individual animal data","Wistar rats; oral 30 mg/kg, listed as HY-2901, 30 mg/kg",37 and 20 and 23 and 1 (2×) and 18
same,inhibition of CYP 2C9 activity,CYP 2C9,did not inhibit
same,persistence of tachycardia postdose,telemetered Beagle dogs; 0.3 and 1 mg/kg,6 to 8 h
same,peak heart rate,telemetered Beagle dogs; 10 and 30 mg/kg dose groups,150–160
same,QT or corrected QT interval,"telemetered Beagle dogs; doses of 0.3, 1, 3, 10, and 30 mg/kg",no changes in QT or corrected QT interval at any dose
same,heart rate effect,"telemetered Beagle dogs; doses of 0.3 to 30 mg/kg, intravenous or oral",dose-related sinus tachycardia
same,persistence of tachycardia,telemetered Beagle dogs; higher doses,10 to 12 h
same,blood pressure,telemetered Beagle dogs; paralleled the tachycardia,slight increase in blood pressure
same,Group mean (±sd) number of abdominal spasms recorded in a 25 minute period,Crl:CD-I(ICR)BR mice; oral 3 mg/kg,6 ± 6.2
same,Group mean (±sd) number of abdominal spasms recorded in a 25 minute period,Crl:CD-I(ICR)BR mice; oral 10 mg/kg,1 ± 2.0
same,Group mean (±sd) number of abdominal spasms recorded in a 25 minute period,Crl:CD-I(ICR)BR mice; oral 30 mg/kg,0 ± 0.0
same,Number of abdominal spasms recorded in a 25-minute period,"Crl:CD-I(ICR)BR mice; 3 mg/kg, individual animal data (animals 7-12), listed as HY-2901, 3 mg/kg",0 (2×) and 1 and 10 and 7 and 15
same,Number of abdominal spasms recorded in a 25-minute period,"Crl:CD-I(ICR)BR mice; 10 mg/kg, individual animal data (animals 13-18), listed as HY-2901, 10 mg/kg",0 (4×) and 2 and 5
same,Number of abdominal spasms recorded in a 25-minute period,"Crl:CD-I(ICR)BR mice; 30 mg/kg, individual animal data (animals 19-24)",0
same,Kp,[4],1

# From patent US7326721B2 (Hypnion, Inc., priority 2003, dated 2008)
